Measured values as given in patent US7547713B2, “O-pyridinequinone derivatives, the composition containing the derivatives, the process for preparation of the derivatives and the use of the derivatives” (priority 2002, dated 2009).
Entries after “also recorded” stand apart in the source; their conditions may differ. Read-outs that look alike come from different tables or passages of the source.

How the values were obtained:
COX-1 = COX-1 (Homo sapiens, UniProt P23219); test: Inhibition of COX-1 (TMPD/arachidonic acid, absorption at 611 nm); format: biochemical
Procedure: Methods: 4 μl of COX-1 was added to 960 μl 0.1 M Tris-HCl in a cell. The mixture was equilibrated for 30s, and then added with 1 μl inhibitor. After 2 min, 15 μl TMPD and 15 μl A.A. were immediately added to the mixture and mixed well. After 7 min, the absorption was measured at 611 nm.

COX-2 = biological target: T1, COX-2 (Homo sapiens, UniProt P35354); test: Inhibition of COX-2 in COLO 205 cell line (Prostaglandin E2 EIA); format: cell-based
T1 construct: host or cells: COLO 205
T1 sequence (P35354 18-604): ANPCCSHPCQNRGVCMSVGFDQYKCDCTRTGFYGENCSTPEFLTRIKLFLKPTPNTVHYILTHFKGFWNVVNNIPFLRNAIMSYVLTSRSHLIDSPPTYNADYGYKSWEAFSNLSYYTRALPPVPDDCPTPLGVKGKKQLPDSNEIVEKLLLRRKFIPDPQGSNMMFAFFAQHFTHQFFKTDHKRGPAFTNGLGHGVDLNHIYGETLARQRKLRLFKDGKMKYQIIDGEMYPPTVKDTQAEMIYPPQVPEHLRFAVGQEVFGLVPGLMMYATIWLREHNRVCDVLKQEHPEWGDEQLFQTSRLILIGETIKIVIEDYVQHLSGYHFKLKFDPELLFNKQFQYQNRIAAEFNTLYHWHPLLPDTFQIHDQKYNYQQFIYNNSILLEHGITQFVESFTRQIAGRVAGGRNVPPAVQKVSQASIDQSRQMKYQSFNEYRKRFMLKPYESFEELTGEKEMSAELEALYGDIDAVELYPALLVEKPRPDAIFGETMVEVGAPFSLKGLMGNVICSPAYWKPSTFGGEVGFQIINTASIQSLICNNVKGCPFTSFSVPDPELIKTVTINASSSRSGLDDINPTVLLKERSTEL
Excerpt: Enzyme-Linked ImmunoSorbent Assay Kit (Prostaglandins E2 (PEG2) EIA Kit-Monoclonal, Cayman Chemical company (U.S.A)).

[1] = tested on: rat model of toe swelling; test: Rat model of toe swelling (3% formaldehyde); format: in vivo; conditions: toe volume 2 hours after injection
Procedure: Forty healthy male rats were divided randomly into 4 groups, 10 rats per group, namely, the blank control group, the 5,6-di(m-acetylphenylamino)-2,3-pyridindione group, the 5,6-di(m-carboxylphenylamino)-2,3-pyridindione group, and the aspirin group as the drug control group. 0.1 ml of inflammation inducer (3% formaldehyde) was subcutaneously injected into the right toe of the hind leg of each rat. After 24 hours, the compounds with dosage listed in Table 1 were injected into the rats, respectively. The volume of the toes was measured 2 hours later after injection by using the Water Volume Method described in the Methodology of Pharmacology Experiments, 2nd edition, Shu-yun Xu, etc., People's Medical Publishing House, Beijing, 1991.

[2] = tested on: mouse model of auricle swelling; test: Mouse model of auricle swelling (xylene); format: in vivo; conditions: xylene after 60 min, killed 4 hours later
Procedure: Forty healthy male mice were divided randomly into 4 groups, 10 mice per group, namely, the blank control group, the 5,6-di(m-acetylphenylamino)-2,3-pyridindione group, the 5,6-di(m-carboxylphenylamino)-2,3-pyridindione group, and the aspirin group as the drug control group. The compounds with dosage listed in Table 2 were administered orally to the […], respectively. After 60 min 0.05 ml xylene (analytical grade) was applied on the right ear of each mouse, respectively. The mice were killed 4 hours later, a disk of ear tissue was removed from the same location of both ears using a 5.5-mm biopsy punch, then each of the ear disks was weighed, and the rates of auricle swelling inhibition were calculated, as listed in Table 2.

[3] = tested on: animal model of anti-histamine; test: Animal model of anti-histamine (Evans blue, dyed back skin); format: in vivo; conditions: rat; for Inhibition rate (%): histamine s.c., Evans blue; for Absorbency(A): blank control 0.099
Procedure: Forty healthy male rats were divided randomly into 4 groups, […], namely, the blank control group, the 5,6-di(m-acetylphenylamino)-2,3-pyridindione group, the 5,6-di(m-carboxylphenylamino)-2,3-pyridindione group, and the aspirin group as the positive control group. The compounds with dosage listed in Table 3 were administered orally to the rats, respectively, then 0.1 ml of […] was administered subcutaneously, and then 1 ml of 1% Evans blue was immediately injected intravenously under the tongue.

mice = conditions: mouse, in vivo; for Death rate: both, 7 days
Procedure: Toxicological test of 5,6-di(m-acetylphenylamino)-2,3-pyridindione Single dose administration was used. 5,6-di(m-acetylphenylamino)-2,3-pyridindione was prepared to the required concentration with the presence of 0.5% DMSO. Sixty healthy male mice and 60 healthy female mice were divided randomly into 10 mice per group, 12 groups, among which 5 groups were administered by tail vein injection, and 5 groups were administered via gastro infusion, and the other two groups were used as negative controls. The activities and death of mice were observed and recorded for 7 days after the administration of the compound.

[4] = tested on: mouse skin capillary permeability; test: Increment of the mouse skin capillary permeability (xylene, Evans blue); format: in vivo; conditions: OD at 590 nm, blank control 0.442 ± 0.240, lower is better
Excerpt: One hundred and seventy healthy male mice were divided randomly into 17 groups, 10 mice per group, namely, the blank control group, the high, medium, and low dosage groups of 5,6-di(m-acetylphenylamino)-2,3-pyridindione, respectively, the high, medium, and low dosage groups of 5,6-di(m-carboxylphenylamino)-2,3-pyridindione, respectively, the high, medium, and low dosage groups of 5,6-di(p-carboxylphenylamino)-2,3-pyridindione, respectively, the high, medium, and low dosage groups of 5,6-di(p-chlorophenylamino)-2,3-pyridindione, respectively, the high, medium, and low dosage groups of 5,6-di(p-tolylamino)-2,3-pyridindione, and the aspirin group as the positive control group. The mice were administered via gastro infusion according to the Table 5, and 1 hour later, 0.5%. Evans blue saline was injected into the mice via tail vain at 0.1 ml/10 g, then xylene with a dosage of 0.03 ml/mouse was applied to the mice in the shaved area at the middle belly. The mice were killed by cervical dislocation 20 min later, and their belly skin was peeled off, where the blue area was removed by using a biopsy punch, broken up by using surgery scissors, and put into covered glass tubes. Seven milliliters of acetone/water (7:3, v/v) solution was added into each tube, which was then stored in the dark and was gently shaken up 2-3 times daily. After 3 days, the solution in each tube was centrifuged at 2000 rpm for 10 min, and the supernatant was measured for optical density at 590 nm with the absorption of acetone/water (7:3, v/v) solution as the baseline. The lower the OD value, the better the anti-inflammatory effect.

[5] = 5 mg/kg injected 24 h after formaldehyde
[6] = gastro infusion 1.0 mg/kg (low dosage)
[7] = gastro infusion 3.2 mg/kg (medium dosage)
[8] = gastro infusion 6.5 mg/kg (high dosage)

Sequence of COX-1 (P23219 24-599): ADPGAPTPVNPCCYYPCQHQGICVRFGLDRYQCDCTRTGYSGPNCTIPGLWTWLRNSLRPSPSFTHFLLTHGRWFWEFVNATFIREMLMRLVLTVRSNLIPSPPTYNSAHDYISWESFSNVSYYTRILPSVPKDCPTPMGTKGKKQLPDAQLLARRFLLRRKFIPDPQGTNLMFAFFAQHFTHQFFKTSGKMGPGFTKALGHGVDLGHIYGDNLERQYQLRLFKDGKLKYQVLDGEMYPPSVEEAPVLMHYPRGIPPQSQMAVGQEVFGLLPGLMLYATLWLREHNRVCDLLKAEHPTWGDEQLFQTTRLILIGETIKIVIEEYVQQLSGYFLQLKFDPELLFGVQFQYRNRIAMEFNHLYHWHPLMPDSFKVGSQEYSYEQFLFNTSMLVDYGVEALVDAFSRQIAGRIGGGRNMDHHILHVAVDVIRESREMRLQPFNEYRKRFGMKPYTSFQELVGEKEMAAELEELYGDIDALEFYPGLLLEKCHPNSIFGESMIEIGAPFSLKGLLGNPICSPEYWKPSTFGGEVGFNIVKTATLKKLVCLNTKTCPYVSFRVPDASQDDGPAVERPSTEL

| Compound | Inhibition rate (%) of toe swelling [1, 5] | Inhibition rate (%) of auricle swelling ([2]; 30 mg/kg orally) | Inhibition rate (%) ([3]; 10 mg/kg orally) | Absorbency(A) ([3]; 10 mg/kg orally) | OD (A) [4, 6] | OD (A) [4, 7] | OD (A) [4, 8] | further results |
| --- | --- | --- | --- | --- | --- | --- | --- | --- |
| CC(=O)c1cccc(NC2=CC(=O)C(=O)N=C2Nc2cccc(C(C)=O)c2)c1 [5,6-di(m-acetylphenylamino)-2,3-pyridindione] | 62.5% | 83.2% | 19% | 0.081 A | 0.241 ± 0.121 A | 0.035 ± 0.049 A | 0.019 ± 0.018 A | inhibition effect on COX-1 (COX-1; 1 μl of 10 mM inhibitor in dimethylsulfoxide, compared with control group without inhibitors, FIG. 1): no obvious inhibition effects; also recorded: almost no inhibition effect; inhibition of the activity of COX-2 (COX-2; COLO 205 cell line, PGE2 EIA, FIG. 2): higher inhibition effects on COX-2 than the former two; inhibition of the growth of the COLO205 cells ex vivo (COX-2; FIG. 2 legend): inhibits the growth of the COLO205 cells ex vivo; Death rate (mice; 720 mg/kg): 0; Death rate (mice; 1030 mg/kg): 0; Death rate (mice; 1470 mg/kg): 0; Death rate (mice; 2100 mg/kg): 0; Death rate (mice; 3000 mg/kg): 0; death of the animals (mice): No death of the animals was observed; toxic reaction in aspect of activity, reactivity, back hair, dejecta (mice): normal; Toxic reaction (mice; 720 mg/kg): normal; Toxic reaction (mice; 1030 mg/kg): normal; Toxic reaction (mice; 1470 mg/kg): normal; Toxic reaction (mice; 2100 mg/kg): normal; Toxic reaction (mice; 3000 mg/kg): normal |
| Cc1ccc(NC2=CC(=O)C(=O)N=C2Nc2ccc(C)cc2)cc1 [5,6-di(p-tolylamino)-2,3-pyridindione] | – | – | – | – | 0.049 ± 0.049 A | 0.011 ± 0.022 A | 0.051 ± 0.042 A | – |
| O=C1C=C(Nc2cccc(C(=O)O)c2)C(Nc2cccc(C(=O)O)c2)=NC1=O [5,6-di(m-carboxylphenylamino)-2,3-pyridindione] | 45.5% | 65.5% | 16% | 0.084 A | 0.038 ± 0.026 A | 0.030 ± 0.010 A | 0.036 ± 0.011 A | – |
| O=C1C=C(Nc2ccc(C(=O)O)cc2)C(Nc2ccc(C(=O)O)cc2)=NC1=O [5,6-di(p-carboxylphenylamino)-2,3-pyridindione] | – | – | – | – | 0.089 ± 0.054 A | 0.043 ± 0.023 A | 0.030 ± 0.012 A | – |
| CC(=O)Oc1ccccc1C(=O)O [Aspirin, reference compound] | – | – | – | – | – | – | – | inhibition effect on COX-1 (COX-1): inhibited; Inhibition rate (%) of toe swelling ([1]; 50 mg/kg injected 24 h after formaldehyde): 10.1%; Inhibition rate (%) of auricle swelling ([2]; 100 mg/kg orally): 30.1%; Inhibition rate (%) ([3]; 160 mg/kg orally): 13%; Absorbency(A) ([3]; 160 mg/kg orally): 0.086 A |
| O=C1C=C(Nc2ccc(Cl)cc2)C(Nc2ccc(Cl)cc2)=NC1=O [5,6-di(p-chlorophenylamino)-2,3-pyridindione] | – | – | – | – | 0.142 ± 0.098 A | 0.035 ± 0.026 A | 0.015 ± 0.015 A | – |
